Laboratory results from patent publication US20050014849A1, “Antifungal phenylethylene” (priority 2001, published 2005).
Values after ≈ are worked out from the molar mass of the structure shown.

Columns and labels:
all bacteria = assay: NCCLS broth macrodilution assay, antibacterial; assay type: cell-based; settings: Neisseria gonorrhoeae; all bacteria (single exception N. gonorrhoeae)
Protocol: (§1) The antibacterial activity of TMPN was also assessed by the NCCLS broth macrodilution assay. Isolated colonies from overnight cultures were suspended and diluted as recommended to yield final inocula of approximately 5×10^5 cfu/ml. Tests were performed in sterile plastic tubes (12 by 75 mm) containing twofold dilutions of TMPN in gonococcal typing broth (Neisseria), Mueller Hinton II (MHII) (cation adjusted) broth containing 3% lysed horse blood (Streptococcus) or MHII broth (all other bacteria). One tube was left drug-free (but contained an equivalent volume of DMSO) for a turbidity control. Tubes were incubated without agitation at 37° C. with 5% CO2 (Streptococcus, Neisseria), or at 35° C. (remaining bacteria). MICs were determined after 24 h for all bacteria except Micrococcus, which was read at 48 h. The MIC was defined as the lowest concentration of drug that inhibited all visible growth of the test organism (optically clear).

N. gonorrhoeae = assay: NCCLS broth macrodilution assay, antibacterial; assay type: cell-based; settings: Neisseria gonorrhoeae
Protocol: as §1

[1] = tested on: R. nigracans (ASU culture collection); assay: Broth macrodilution MIC/MFC, filamentous fungi; assay type: cell-based, Rhizopus nigracans
Protocol: (§2) Susceptibility testing of filamentous fungi was also conducted. Broth macrodilution susceptibility testing of P. lilacinus, Rhizopus spp. and Aspergillus spp. was performed in accordance with a proposed standardized procedure with slight modification. To induce conidium and sporangiospore formation, fungi were grown on PDA slants at 35° C. for 6 days (P. lilacinus, Rhizopus spp., all Aspergillus species except A. nidulans) or 3 days (A. nidulans). Fungal slants were covered with sterile 0.85% NaCl (P. lilacinus, Rhizopus spp., all Aspergillus species except A. nidulans) or 0.05% Tween 80 (A. nidulans), and suspensions were made by gently probing the colonies with the tip of a sterile Pasteur pipette. The resulting mixture of hyphal fragments and conidia or sporangiospores was withdrawn and transferred to a sterile clear microcentrifuge tube, and heavy particles were allowed to settle for 10 min. […] Susceptibility to TMPN was then determined by broth macrodilution as described above for yeast isolates. […]
(§3) Minimum fungicidal concentrations (MFCs) were determined by subculturing 0.1 ml from each tube with no visible growth in the MIC broth macrodilution series onto the appropriate drug-free plates (see Fungal Strains section above).

[2] = tested on: Neisseria gonorrhoeae ATCC 49226; assay: NCCLS disk susceptibility test; assay type: cell-based; settings: disk diffusion
Protocol: (§4) Antimicrobial activity was assayed by National Committee for Clinical Laboratory Standards (NCCLS) disk susceptibility tests. Isolated colonies from overnight cultures were suspended and diluted as recommended to yield approximately 1-2×10^8 cfu/ml, and 50 μl of this preparation immediately spread on agar plates. NCCLS recommended agar media were used for S. pneumoniae and N. gonorrhoeae, and Mueller-Hinton agar for all other bacteria. Yeast strains were tested on SDA. Excess moisture was absorbed for 10 min prior to application of 6 mm paper discs containing two-fold dilutions of TMPN in sterile DMSO.

[3] = tested on: Staphylococcus aureus ATCC 29213; assay: NCCLS disk susceptibility test; assay type: cell-based; settings: disk diffusion
Protocol: as §4

[4] = tested on: Enterococcus faecalis ATCC 29212; assay: NCCLS disk susceptibility test; assay type: cell-based; settings: disk diffusion
Protocol: as §4

[5] = tested on: Pseudomonas aeruginosa Presque Isle 99; assay: NCCLS disk susceptibility test; assay type: cell-based; settings: disk diffusion
Protocol: as §4

[6] = tested on: Micrococcus luteus Presque Isle 456; assay: NCCLS disk susceptibility test; assay type: cell-based; settings: disk diffusion
Protocol: as §4

[7] = tested on: Streptococcus pneumoniae ATCC 6303; assay: NCCLS disk susceptibility test; assay type: cell-based; settings: disk diffusion
Protocol: as §4

[8] = tested on: Escherichia coli ATCC 25922; assay: NCCLS disk susceptibility test; assay type: cell-based; settings: disk diffusion
Protocol: as §4

[9] = tested on: Klebsiella pneumoniae Presque Isle 344; assay: NCCLS disk susceptibility test; assay type: cell-based; settings: disk diffusion
Protocol: as §4

[10] = tested on: Bacillus subtilis Presque Isle 620; assay: NCCLS disk susceptibility test; assay type: cell-based; settings: disk diffusion
Protocol: as §4

[11] = tested on: Cryptococcus neoformans ATCC 90112; assay: NCCLS disk susceptibility test; assay type: cell-based; settings: disk diffusion
Protocol: as §4

[12] = tested on: Stenotrophomonas maltophilia ATCC 13637; assay: NCCLS disk susceptibility test; assay type: cell-based; settings: disk diffusion
Protocol: as §4

[13] = tested on: Staphylococcus epidermidis Presque Isle 4653; assay: NCCLS disk susceptibility test; assay type: cell-based; settings: disk diffusion
Protocol: as §4

[14] = tested on: Enterobacter cloacae ATCC 13047; assay: NCCLS disk susceptibility test; assay type: cell-based; settings: disk diffusion
Protocol: as §4

[15] = tested on: Candida albicans ATCC 90028; assay: NCCLS disk susceptibility test; assay type: cell-based; settings: disk diffusion
Protocol: as §4

[16] = tested on: Proteus vulgaris Presque Isle 365; assay: NCCLS disk susceptibility test; assay type: cell-based; settings: disk diffusion
Protocol: as §4

[17] = tested on: murine P388 lymphocytic leukemia cell line and six human cancer cell lines; assay: Sulforhodamine B cancer cell growth inhibition (summary over lines); assay type: cell-based
Protocol: An investigation TMPN's in vitro antineoplastic activity was also conducted. This investigation included an analysis of both cell growth, and of the effects of TMPN upon tubulin. Inhibition of cancer cell growth was assessed using the Sulforhodamine B assay as previously described. Briefly, cells in 5% fetal calf serum/RPMI-1640 were inoculated into 96 well plates, incubated 24 h and 10-fold dilutions of TMPN added. After a 48 h incubation, plates were fixed with trichloroacetic acid, washed, stained with Sulforhodamine B and read with an automated microtiter plate reader.

A. nidulans strain FGSC4 = assay: Broth macrodilution MIC/MFC, filamentous fungi; assay type: cell-based, Aspergillus nidulans
Protocol: as §2, §3

With `COc1cc(C=C[N+](=O)[O-])cc(OC)c1OC` [TMPN, 1-(3′,4′,5′-trimethoxyphenyl)-2-nitro-ethylene] the MIC (all bacteria) was over 64 µg/mL, the MIC (N. gonorrhoeae) was 4 µg/mL (≈ 16.7 µM) and the “MFC Range” value [1] was over 64 µg/mL. The “MIC Range” value [1] was 32 µg/mL (≈ 134 µM), the MIC [2] was 0.39-0.78 μg/disk and the MIC [3] was 3.12-6.25 μg/disk. For the same compound, the MIC [4] was 50-100 μg/disk, the MIC [5] was over 100 μg/disk and the MIC [6] was 50-100 μg/disk. For the same compound, the MIC [7] was 3.12-6.25 μg/disk, the MIC [8] was over 100 μg/disk and the MIC [9] was over 100 μg/disk. For the same compound, the MIC [10] was 50-100 μg/disk, the MIC [11] was 0.78-1.56 μg/disk and the MIC [12] was over 100 μg/disk. The MIC [13] was 50-100 μg/disk, the MIC [14] was over 100 μg/disk and the MIC [15] was 6.25-12.5 μg/disk. The MIC [16] was 12.5-25 μg/disk, the GI50 ([17]; Mus musculus, P388, murine P388 and six human cancer cell lines, read-out: GI50 values, range over cell lines) was 1 to 4 µg/mL (≈ 4.18 to 16.7 µM) and the “GI50 values, range over cell lines” value ([17]; murine P388 and six human cancer cell lines) was 1.1 to 4.1 µg/mL. For the same compound, the “MFC Range” value (A. nidulans strain FGSC4) was 16 µg/mL (≈ 66.9 µM) and the “MIC Range” value (A. nidulans strain FGSC4) was 8 µg/mL (≈ 33.4 µM).
